Reference: US20240299412A1, “DRUG FORMULATIONS OF 4-(3,3-DIFLUORO-2,2-DIMETHYL-PROPANOYL) -3,5-DIHYDRO-2H-PYRIDO[3,4-f][1,4]OXAZEPINE-9-CARBONITRILE” (Genzyme Corporation, priority 2023, published 2024)
In brackets after ≈: the same amount, converted by molar mass.

Legend:
Assay type in all cases: physicochemical
[1] = Kinetic solubility in bio-relevant media and H2O; conditions: thermodynamic from solid, 37° C., Turbid
Experimental: Solids were suspended in FaSSIF, FeSSIF, SGF and H2O with target conc. of ˜10 mg/mL. The suspensions were agitated on a rolling incubator at 25 rpm (in the incubator set at 37° C.) for 1, 4 and 24 hrs. At each time point, 1 mL of the suspension was pipetted out for centrifugation at 15000 rpm (3 min) and filtration through 0.45 μm membrane to obtain supernatant for HPLC solubility and pH tests, the residual solids were analyzed by XRPD.

[2] = 24-Hrs solubility in pH buffers; conditions: for solubility at 24 h: aqueous buffer, thermodynamic from solid, Turbid; for Final Form: residual solid; for solubility at 24 h / Final Form: 24 hrs
[3] = Solution stability in pH buffers; conditions: 37° C.; for Purity vs. Initial (%): ~0.5 mg/mL, Clear
Experimental: Solution stability study was performed in pH 2.0/4.0/6.0/7.0 (24 hrs) and pH 8.0 (24 hrs and 96 hrs) buffers. Solids were dissolved with pH buffers with target conc. of ˜0.5 mg/mL to form clear solutions and stored at 37° C. for 24 hrs or 96 hrs.

[4] = pH 7.0 (50 mM Phosphate), 24 hrs
[5] = pH 8.0 (50 mM Phosphate), 24 hrs
[6] = pH 8.0 (50 mM Phosphate), 96 hrs

A solubility at 24 h ([1]; FaSSIF (pH 6.5), final pH 6.6) of 1200 µg/mL (≈ 4.06 mM), a solubility at 1 h ([1]; FeSSIF (pH 5.0), final pH 5.6) of 1100 µg/mL (≈ 3.73 mM) and a solubility at 4 h ([1]; FeSSIF (pH 5.0), final pH 5.6) of 1200 µg/mL (≈ 4.06 mM) were found for `CC(C)(C(=O)N1CCOc2c(C#N)cncc2C1)C(F)F` [Form A, 4-(3,3-difluoro-2,2-dimethyl-propanoyl)-3,5-dihydro-2H-pyrido[3,4-f][1,4]oxazepine-9-carbonitrile] in this work. It also gave a solubility at 24 h ([1]; FeSSIF (pH 5.0), final pH 5.6) of 1200 µg/mL (≈ 4.06 mM), a solubility at 1 h ([1]; water, H2O (pH 6.5), final pH 8.5) of 1100 µg/mL (≈ 3.73 mM) and a solubility at 4 h ([1]; water, H2O (pH 6.5), final pH 8.4) of 1100 µg/mL (≈ 3.73 mM). It also gave a solubility at 24 h ([1]; water, H2O (pH 6.5), final pH 8.7) of 1100 µg/mL (≈ 3.73 mM), a solubility at 24 h ([2]; 50 mM HCl-KCl buffer, pH 2.0 (50 mM HCl—KCl), final pH 2.3) of 1800 µg/mL (≈ 6.1 mM) and a solubility at 24 h ([2]; 50 mM citrate buffer, pH 4.0 (50 mM Citrate), final pH 4.1) of 840 µg/mL (≈ 2.84 mM). For the same compound, the solubility at 24 h ([2]; 50 mM citrate buffer, pH 6.0 (50 mM Citrate), final pH 5.9) was 750 µg/mL (≈ 2.54 mM), the solubility at 24 h ([2]; 50 mM phosphate buffer, pH 7.0 (50 mM Phosphate), final pH 6.9) was 900 µg/mL (≈ 3.05 mM) and the solubility at 24 h ([2]; 50 mM phosphate buffer, pH 8.0 (50 mM Phosphate), final pH 7.8) was 810 µg/mL (≈ 2.74 mM). The “form change after equilibrium solubility evaluation” value ([2]; pH buffers) was “no form change”, the Final Form ([2]; pH 2.0 (50 mM HCl—KCl)) was “Form A” and the Final Form ([2]; pH 4.0 (50 mM Citrate)) was “Form A”. For the same compound, the Final Form ([2]; pH 6.0 (50 mM Citrate)) was “Form A”, the Final Form ([2]; pH 7.0 (50 mM Phosphate)) was “Form A” and the Final Form ([2]; pH 8.0 (50 mM Phosphate)) was “Form A”. The “API (RRT 1.00) % Area” value ([3]; pH 2.0 (50 mM HCl—KCl), 24 hrs) was 84.93 % Area, the “Imp. 1 (RRT 0.66) % Area” value ([3]; pH 2.0 (50 mM HCl—KCl), 24 hrs) was 0.15 % Area and the “Imp. 1 (RRT 0.70) % Area” value ([3]; pH 2.0 (50 mM HCl—KCl), 24 hrs) was 0.67 % Area. For the same compound, the “Imp. 1 (RRT 0.76) % Area” value ([3]; pH 2.0 (50 mM HCl—KCl), 24 hrs) was 14.25 % Area, the “Imp. 1 (RRT 1.05) % Area” value ([3]; pH 2.0 (50 mM HCl—KCl), 24 hrs) was “— (—: <0.05 area %)” and the “Purity vs. Initial (%)” value ([3]; pH 2.0 (50 mM HCl—KCl), 24 hrs) was 85.1%. For the same compound, the degradation in solution ([3]; pH 2.0 and pH 4.0 buffers, 24 hrs) was “Degradation was observed”, the “API (RRT 1.00) % Area” value ([3]; pH 4.0 (50 mM Citrate), 24 hrs) was 98.42 % Area and the “Imp. 1 (RRT 0.66) % Area” value ([3]; pH 4.0 (50 mM Citrate), 24 hrs) was 0.15 % Area. The “Imp. 1 (RRT 0.70) % Area” value ([3]; pH 4.0 (50 mM Citrate), 24 hrs) was “— (—: <0.05 area %)”, the “Imp. 1 (RRT 0.76) % Area” value ([3]; pH 4.0 (50 mM Citrate), 24 hrs) was 0.38 % Area and the “Imp. 1 (RRT 1.05) % Area” value ([3]; pH 4.0 (50 mM Citrate), 24 hrs) was 0.06 % Area. For the same compound, the “Purity vs. Initial (%)” value ([3]; pH 4.0 (50 mM Citrate), 24 hrs) was 98.5%, the “API (RRT 1.00) % Area” value ([3]; pH 6.0 (50 mM Citrate), 24 hrs) was 99.75 % Area and the “Imp. 1 (RRT 0.66) % Area” value ([3]; pH 6.0 (50 mM Citrate), 24 hrs) was 0.13 % Area. For the same compound, the “Imp. 1 (RRT 0.70) % Area” value ([3]; pH 6.0 (50 mM Citrate), 24 hrs) was “— (—: <0.05 area %)”, the “Imp. 1 (RRT 0.76) % Area” value ([3]; pH 6.0 (50 mM Citrate), 24 hrs) was 0.06 % Area and the “Imp. 1 (RRT 1.05) % Area” value ([3]; pH 6.0 (50 mM Citrate), 24 hrs) was 0.06 % Area. For the same compound, the “Purity vs. Initial (%)” value ([3]; pH 6.0 (50 mM Citrate), 24 hrs) was 99.8%, the “API (RRT 1.00) % Area” value [3, 4] was 99.78 % Area and the “Imp. 1 (RRT 0.66) % Area” value [3, 4] was 0.15 % Area. The “Imp. 1 (RRT 0.70) % Area” value [3, 4] was “— (—: <0.05 area %)”, the “Imp. 1 (RRT 0.76) % Area” value [3, 4] was “— (—: <0.05 area %)” and the “Imp. 1 (RRT 1.05) % Area” value [3, 4] was 0.07 % Area. The “Purity vs. Initial (%)” value [3, 4] was 99.9%, the “API (RRT 1.00) % Area” value [3, 5] was 99.81 % Area and the “Imp. 1 (RRT 0.66) % Area” value [3, 5] was 0.13 % Area. For the same compound, the “Imp. 1 (RRT 0.70) % Area” value [3, 5] was “— (—: <0.05 area %)”, the “Imp. 1 (RRT 0.76) % Area” value [3, 5] was “— (—: <0.05 area %)” and the “Imp. 1 (RRT 1.05) % Area” value [3, 5] was 0.06 % Area. For the same compound, the “Purity vs. Initial (%)” value [3, 5] was 100.0%, the “API (RRT 1.00) % Area” value [3, 6] was 99.83 % Area and the “Imp. 1 (RRT 0.66) % Area” value [3, 6] was 0.13 % Area. For the same compound, the “Imp. 1 (RRT 0.70) % Area” value [3, 6] was “— (—: <0.05 area %)”, the “Imp. 1 (RRT 0.76) % Area” value [3, 6] was “— (—: <0.05 area %)” and the “Imp. 1 (RRT 1.05) % Area” value [3, 6] was 0.04 % Area. For the same compound, the “Purity vs. Initial (%)” value [3, 6] was 100.0%.
